Measurements from ChEMBL document CHEMBL4507258 (2021).

What was measured:
[1] = target: D(2) dopamine receptor (Homo sapiens) (UniProt P14416); conditions: Compound concentration 10.0 uM
[2] = target: Tyrosine-protein kinase JAK1 (Homo sapiens) (UniProt P23458); conditions: Compound concentration 1000.0 nM
[3] = target: Serine/threonine-protein kinase PAK 2 (Homo sapiens) (UniProt Q13177); conditions: Compound concentration 1000.0 nM
[4] = target: Activin receptor type-1B (Homo sapiens) (UniProt P36896); conditions: Compound concentration 1000.0 nM
[5] = target: Aurora kinase B (Homo sapiens) (UniProt Q96GD4); conditions: Compound concentration 1000.0 nM
[6] = target: Serine/threonine-protein kinase PAK 1 (Homo sapiens) (UniProt Q13153); conditions: Compound concentration 1000.0 nM
[7] = target: Serine/threonine-protein kinase RIO3 (Homo sapiens) (UniProt O14730); conditions: Compound concentration 1000.0 nM
[8] = target: 5-hydroxytryptamine receptor 1E (Homo sapiens) (UniProt P28566); conditions: Compound concentration 10.0 uM
[9] = target: MAP/microtubule affinity-regulating kinase 3 (Homo sapiens) (UniProt P27448); conditions: Compound concentration 1000.0 nM
[10] = target: Ribosomal protein S6 kinase alpha-6 (Homo sapiens) (UniProt Q9UK32); conditions: Compound concentration 1000.0 nM
[11] = target: Angiopoietin-1 receptor (Homo sapiens) (UniProt Q02763); conditions: Compound concentration 1000.0 nM
[12] = target: Tyrosine-protein kinase Fgr (Homo sapiens) (UniProt P09769); conditions: Compound concentration 1000.0 nM
[13] = tested on: Phosphatidylinositol 4,5-bisphosphate 3-kinase catalytic subunit alpha isoform (Homo sapiens), P42336 [C420R]; conditions: Compound concentration 1000.0 nM
[14] = target: Histamine H3 receptor (Homo sapiens) (UniProt Q9Y5N1); conditions: Compound concentration 10.0 uM
[15] = target: Mast/stem cell growth factor receptor Kit (Homo sapiens) (UniProt P10721); conditions: Compound concentration 1000.0 nM
[16] = target: Mitogen-activated protein kinase kinase kinase 7 (Homo sapiens) (UniProt O43318); conditions: Compound concentration 1000.0 nM
Sequence of Mitogen-activated protein kinase kinase kinase 7 (Homo sapiens) (O43318 whole entry): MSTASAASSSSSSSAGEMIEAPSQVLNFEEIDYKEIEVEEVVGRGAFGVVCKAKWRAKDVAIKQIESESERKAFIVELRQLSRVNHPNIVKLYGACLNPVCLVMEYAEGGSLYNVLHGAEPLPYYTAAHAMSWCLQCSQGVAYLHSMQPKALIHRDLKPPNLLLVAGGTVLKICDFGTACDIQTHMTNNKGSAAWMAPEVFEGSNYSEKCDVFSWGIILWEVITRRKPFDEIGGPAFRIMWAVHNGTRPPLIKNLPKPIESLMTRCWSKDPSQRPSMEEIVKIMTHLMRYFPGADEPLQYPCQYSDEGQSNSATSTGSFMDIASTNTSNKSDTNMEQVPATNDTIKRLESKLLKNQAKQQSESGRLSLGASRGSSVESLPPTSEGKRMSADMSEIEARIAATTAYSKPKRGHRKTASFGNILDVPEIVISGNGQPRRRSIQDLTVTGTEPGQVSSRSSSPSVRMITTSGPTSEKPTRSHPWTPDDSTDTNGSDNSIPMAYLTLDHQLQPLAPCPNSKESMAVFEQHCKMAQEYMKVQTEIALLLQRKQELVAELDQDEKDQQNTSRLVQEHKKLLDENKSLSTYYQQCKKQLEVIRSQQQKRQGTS

[17] = target: Tyrosine-protein kinase Lck (Homo sapiens) (UniProt P06239); conditions: Compound concentration 1000.0 nM
[18] = target: Phosphatidylinositol 5-phosphate 4-kinase type-2 gamma (Homo sapiens) (UniProt Q8TBX8); conditions: Compound concentration 1000.0 nM
[19] = tested on: Phosphatidylinositol 4,5-bisphosphate 3-kinase catalytic subunit alpha isoform (Homo sapiens), P42336 [I800L]; conditions: Compound concentration 1000.0 nM
Sequence of Phosphatidylinositol 4,5-bisphosphate 3-kinase catalytic subunit alpha isoform (Homo sapiens), P42336 [I800L] (P42336 whole entry I800L, canonical isoform): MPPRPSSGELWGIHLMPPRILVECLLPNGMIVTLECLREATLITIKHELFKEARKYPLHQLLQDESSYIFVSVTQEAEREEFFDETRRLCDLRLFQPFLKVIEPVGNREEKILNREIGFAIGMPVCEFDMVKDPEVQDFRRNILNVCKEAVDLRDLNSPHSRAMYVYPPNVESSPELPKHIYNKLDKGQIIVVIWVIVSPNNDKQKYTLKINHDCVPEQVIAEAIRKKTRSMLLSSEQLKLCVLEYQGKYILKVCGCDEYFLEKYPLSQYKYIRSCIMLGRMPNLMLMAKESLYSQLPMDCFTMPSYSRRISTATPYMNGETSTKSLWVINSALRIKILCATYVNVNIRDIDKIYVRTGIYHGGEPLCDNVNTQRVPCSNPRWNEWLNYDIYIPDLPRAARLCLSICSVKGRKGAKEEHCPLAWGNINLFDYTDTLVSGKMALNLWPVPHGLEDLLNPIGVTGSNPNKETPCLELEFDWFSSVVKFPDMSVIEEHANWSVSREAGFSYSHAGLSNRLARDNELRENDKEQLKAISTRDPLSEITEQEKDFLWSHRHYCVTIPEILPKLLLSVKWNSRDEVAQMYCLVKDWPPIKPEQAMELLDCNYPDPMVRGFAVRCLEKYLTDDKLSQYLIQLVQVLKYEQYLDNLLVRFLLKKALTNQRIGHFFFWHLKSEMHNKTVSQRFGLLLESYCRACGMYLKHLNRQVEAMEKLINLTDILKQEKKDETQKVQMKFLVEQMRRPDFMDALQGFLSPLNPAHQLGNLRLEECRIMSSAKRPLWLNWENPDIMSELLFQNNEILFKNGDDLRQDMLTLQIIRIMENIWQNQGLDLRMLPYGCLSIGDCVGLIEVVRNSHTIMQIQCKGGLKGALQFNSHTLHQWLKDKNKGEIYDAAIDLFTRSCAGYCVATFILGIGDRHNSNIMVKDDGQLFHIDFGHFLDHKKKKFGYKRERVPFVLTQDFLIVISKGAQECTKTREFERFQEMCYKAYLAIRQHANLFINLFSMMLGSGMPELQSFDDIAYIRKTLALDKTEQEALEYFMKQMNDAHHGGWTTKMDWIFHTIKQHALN

[20] = target: Receptor tyrosine-protein kinase erbB-3 (Homo sapiens) (UniProt P21860); conditions: Compound concentration 1000.0 nM
[21] = target: Tyrosine-protein kinase Fyn (Homo sapiens) (UniProt P06241); conditions: Compound concentration 1000.0 nM
[22] = target: Calcium/calmodulin-dependent protein kinase type 1 (Homo sapiens) (UniProt Q14012); conditions: Compound concentration 1000.0 nM
[23] = target: Epithelial discoidin domain-containing receptor 1 (Homo sapiens) (UniProt Q08345); conditions: Compound concentration 1000.0 nM
[24] = target: Serine/threonine-protein kinase RIO1 (Homo sapiens) (UniProt Q9BRS2); conditions: Compound concentration 1000.0 nM
[25] = target: Tyrosine-protein kinase Tec (Homo sapiens) (UniProt P42680); conditions: Compound concentration 1000.0 nM
[26] = target: Cyclin-dependent kinase 4 (Homo sapiens) (UniProt P11802); conditions: Compound concentration 1000.0 nM
Sequence of Cyclin-dependent kinase 4 (Homo sapiens) (P11802 whole entry): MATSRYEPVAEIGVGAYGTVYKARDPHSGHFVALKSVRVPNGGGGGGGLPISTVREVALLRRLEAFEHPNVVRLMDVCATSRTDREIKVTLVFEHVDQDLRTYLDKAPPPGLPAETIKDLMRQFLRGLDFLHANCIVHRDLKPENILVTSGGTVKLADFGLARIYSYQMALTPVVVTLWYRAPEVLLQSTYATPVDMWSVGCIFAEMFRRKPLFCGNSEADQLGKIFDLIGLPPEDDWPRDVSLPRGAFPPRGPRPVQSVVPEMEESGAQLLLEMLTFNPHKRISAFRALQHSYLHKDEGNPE

[27] = target: Receptor tyrosine-protein kinase erbB-4 (Homo sapiens) (UniProt Q15303); conditions: Compound concentration 1000.0 nM
[28] = target: NT-3 growth factor receptor (Homo sapiens) (UniProt Q16288); conditions: Compound concentration 1000.0 nM
[29] = target: Serine/threonine-protein kinase Sgk3 (Homo sapiens) (UniProt Q96BR1); conditions: Compound concentration 1000.0 nM
[30] = target: Beta-adrenergic receptor kinase 1 (Homo sapiens) (UniProt P25098); conditions: Compound concentration 1000.0 nM
[31] = target: Serine/threonine-protein kinase 38 (Homo sapiens) (UniProt Q15208); conditions: Compound concentration 1000.0 nM
[32] = target: BDNF/NT-3 growth factors receptor (Homo sapiens) (UniProt Q16620); conditions: Compound concentration 1000.0 nM
[33] = tested on: Phosphatidylinositol 4,5-bisphosphate 3-kinase catalytic subunit alpha isoform (Homo sapiens), P42336 [E542K]; conditions: Compound concentration 1000.0 nM
Sequence of Phosphatidylinositol 4,5-bisphosphate 3-kinase catalytic subunit alpha isoform (Homo sapiens), P42336 [E542K] (P42336 whole entry E542K, canonical isoform): as the sequence (P42336 whole entry I800L, canonical isoform) above, with E542K, L800I counted along it

[34] = target: Serine/threonine-protein kinase BRSK2 (Homo sapiens) (UniProt Q8IWQ3); conditions: Compound concentration 1000.0 nM
[35] = target: Tyrosine-protein kinase Lyn (Homo sapiens) (UniProt P07948); conditions: Compound concentration 1000.0 nM
[36] = target: Bone morphogenetic protein receptor type-1A (Homo sapiens) (UniProt P36894); conditions: Compound concentration 1000.0 nM
Sequence of Bone morphogenetic protein receptor type-1A (Homo sapiens) (P36894 whole entry, canonical isoform): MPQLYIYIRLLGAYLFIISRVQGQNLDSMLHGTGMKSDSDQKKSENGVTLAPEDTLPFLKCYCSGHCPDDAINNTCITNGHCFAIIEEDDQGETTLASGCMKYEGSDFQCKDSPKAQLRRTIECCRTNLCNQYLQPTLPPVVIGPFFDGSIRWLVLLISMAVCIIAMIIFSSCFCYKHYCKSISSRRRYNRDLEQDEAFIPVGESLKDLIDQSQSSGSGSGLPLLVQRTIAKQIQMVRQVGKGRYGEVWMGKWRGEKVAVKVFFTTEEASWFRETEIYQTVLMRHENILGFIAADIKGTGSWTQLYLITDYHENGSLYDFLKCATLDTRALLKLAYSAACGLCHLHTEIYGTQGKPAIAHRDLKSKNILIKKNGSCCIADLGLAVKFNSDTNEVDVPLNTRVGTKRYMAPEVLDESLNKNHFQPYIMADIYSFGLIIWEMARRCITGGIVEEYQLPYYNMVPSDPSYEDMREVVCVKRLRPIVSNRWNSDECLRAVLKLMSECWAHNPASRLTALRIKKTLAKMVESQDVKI

[37] = target: Casein kinase I isoform gamma-3 (Homo sapiens) (UniProt Q9Y6M4); conditions: Compound concentration 1000.0 nM
[38] = target: Rho-associated protein kinase 2 (Homo sapiens) (UniProt O75116); conditions: Compound concentration 1000.0 nM
[39] = target: Discoidin domain-containing receptor 2 (Homo sapiens) (UniProt Q16832); conditions: Compound concentration 1000.0 nM
Sequence of Discoidin domain-containing receptor 2 (Homo sapiens) (Q16832 whole entry, the tested form may be a part): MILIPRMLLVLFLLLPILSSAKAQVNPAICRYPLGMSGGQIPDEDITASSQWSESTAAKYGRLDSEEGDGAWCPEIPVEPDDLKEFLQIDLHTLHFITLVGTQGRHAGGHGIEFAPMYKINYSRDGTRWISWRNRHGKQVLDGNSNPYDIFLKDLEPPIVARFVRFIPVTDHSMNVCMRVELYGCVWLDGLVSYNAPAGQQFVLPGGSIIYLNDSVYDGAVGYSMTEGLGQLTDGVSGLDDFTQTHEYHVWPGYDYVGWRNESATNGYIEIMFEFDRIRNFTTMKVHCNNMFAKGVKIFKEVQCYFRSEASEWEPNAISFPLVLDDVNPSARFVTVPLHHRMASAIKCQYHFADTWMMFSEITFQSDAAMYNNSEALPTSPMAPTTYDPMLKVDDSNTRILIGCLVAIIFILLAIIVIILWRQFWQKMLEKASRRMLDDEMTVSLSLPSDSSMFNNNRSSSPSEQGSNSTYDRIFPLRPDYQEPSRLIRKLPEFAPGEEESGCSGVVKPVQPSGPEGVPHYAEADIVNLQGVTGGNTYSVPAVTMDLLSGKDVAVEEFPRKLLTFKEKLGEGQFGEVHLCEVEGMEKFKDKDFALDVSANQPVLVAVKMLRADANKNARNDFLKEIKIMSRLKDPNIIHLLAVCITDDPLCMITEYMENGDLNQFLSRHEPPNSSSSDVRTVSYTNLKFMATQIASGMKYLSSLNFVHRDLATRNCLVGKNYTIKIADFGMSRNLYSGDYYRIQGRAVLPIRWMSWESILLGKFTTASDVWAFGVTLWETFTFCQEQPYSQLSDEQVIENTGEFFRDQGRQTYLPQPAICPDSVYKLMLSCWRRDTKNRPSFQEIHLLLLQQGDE

[40] = target: Serine/threonine-protein kinase PLK3 (Homo sapiens) (UniProt Q9H4B4); conditions: Compound concentration 1000.0 nM
[41] = target: Mitogen-activated protein kinase kinase kinase 2 (Homo sapiens) (UniProt Q9Y2U5); conditions: Compound concentration 1000.0 nM
[42] = target: Serine/threonine-protein kinase ULK2 (Homo sapiens) (UniProt Q8IYT8); conditions: Compound concentration 1000.0 nM
[43] = target: Cyclin-dependent kinase 7 (Homo sapiens) (UniProt P50613); conditions: Compound concentration 1000.0 nM
[44] = target: Receptor tyrosine-protein kinase erbB-2 (Homo sapiens) (UniProt P04626); conditions: Compound concentration 1000.0 nM
[45] = target: Serine/threonine-protein kinase tousled-like 2 (Homo sapiens) (UniProt Q86UE8); conditions: Compound concentration 1000.0 nM

Sequence of Serine/threonine-protein kinase PAK 2 (Homo sapiens) (Q13177 whole entry): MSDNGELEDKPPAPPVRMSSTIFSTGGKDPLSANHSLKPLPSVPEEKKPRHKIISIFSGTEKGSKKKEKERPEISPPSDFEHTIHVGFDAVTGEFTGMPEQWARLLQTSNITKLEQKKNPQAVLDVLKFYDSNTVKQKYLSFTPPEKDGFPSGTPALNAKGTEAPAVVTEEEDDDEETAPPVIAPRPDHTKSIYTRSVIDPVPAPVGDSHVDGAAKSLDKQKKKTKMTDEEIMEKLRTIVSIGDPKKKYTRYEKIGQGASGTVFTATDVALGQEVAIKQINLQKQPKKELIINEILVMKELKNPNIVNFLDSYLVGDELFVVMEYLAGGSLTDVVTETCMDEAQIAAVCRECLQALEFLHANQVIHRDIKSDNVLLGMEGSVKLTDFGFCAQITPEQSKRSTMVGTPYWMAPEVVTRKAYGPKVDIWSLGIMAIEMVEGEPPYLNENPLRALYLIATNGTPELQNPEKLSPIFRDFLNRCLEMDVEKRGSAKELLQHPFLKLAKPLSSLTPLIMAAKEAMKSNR

## CCCCN(CCCC)C(=O)CN1C[C@@H](c2cc(OC)c3c(c2)OCO3)[C@H](C(=O)O)[C@H]1CC(C)(C)CCC [A-545]
[1]
  inhibition: 21.3%
[2]
  residual activity: 100%
[3]
  residual activity: 83.5%
[4]
  residual activity: 96.4%
[5]
  residual activity: 100%
[6]
  residual activity: 95.9%
[7]
  residual activity: 100%
[8]
  inhibition: 27.1%
[9]
  residual activity: 93.7%
[10]
  residual activity: 96.6%
[11]
  residual activity: 100%
[12]
  residual activity: 92.4%
[13]
  residual activity: 99.4%
[14]
  inhibition: 17%
[15]
  residual activity: 100%
[16]
  residual activity: 84.7%
[17]
  residual activity: 99.1%
[18]
  residual activity: 80.7%
[19]
  residual activity: 100%
[20]
  residual activity: 100%
[21]
  residual activity: 99.1%
[22]
  residual activity: 100%
[23]
  residual activity: 100%
[24]
  residual activity: 100%
[25]
  residual activity: 100%
[26]
  residual activity: 100%
[27]
  residual activity: 95%
[28]
  residual activity: 87.6%
[29]
  residual activity: 100%
[30]
  residual activity: 97.8%
[31]
  residual activity: 95.2%
[32]
  residual activity: 98.3%
[33]
  residual activity: 100%
[34]
  residual activity: 98.3%
[35]
  residual activity: 75.1%
[36]
  residual activity: 100%
[37]
  residual activity: 100%
[38]
  residual activity: 100%
[39]
  residual activity: 99.1%
[40]
  residual activity: 93.5%
[41]
  residual activity: 84.6%
[42]
  residual activity: 89.2%
[43]
  residual activity: 89.5%
[44]
  residual activity: 92.1%
[45]
  residual activity: 100%

## CCCCN(CCCC)C(=O)CN1C[C@H](c2cc(OC)c3c(c2)OCO3)[C@@H](C(=O)O)[C@@H]1CC(C)(C)CCC [ABT-546]
[1]
  inhibition: 21.3%
[2]
  residual activity: 84.7%
[3]
  residual activity: 100%
[4]
  residual activity: 96.4%
[5]
  residual activity: 100%
[6]
  residual activity: 100%
[7]
  residual activity: 74.9%
[8]
  inhibition: 3.64%
[9]
  residual activity: 98.7%
[10]
  residual activity: 76.4%
[11]
  residual activity: 90.5%
[12]
  residual activity: 100%
[13]
  residual activity: 100%
[14]
  inhibition: -3.57%
[15]
  residual activity: 100%
[16]
  residual activity: 85.5%
[17]
  residual activity: 100%
[18]
  residual activity: 100%
[19]
  residual activity: 52.9%
[20]
  residual activity: 100%
[21]
  residual activity: 100%
[22]
  residual activity: 100%
[23]
  residual activity: 95.5%
[24]
  residual activity: 65.8%
[25]
  residual activity: 100%
[26]
  residual activity: 42.7%
[27]
  residual activity: 100%
[28]
  residual activity: 50.5%
[29]
  residual activity: 75.7%
[30]
  residual activity: 71.8%
[31]
  residual activity: 80.7%
[32]
  residual activity: 62%
[33]
  residual activity: 57.4%
[34]
  residual activity: 95.6%
[35]
  residual activity: 100%
[36]
  residual activity: 86.9%
[37]
  residual activity: 100%
[38]
  residual activity: 85.2%
[39]
  residual activity: 76.6%
[40]
  residual activity: 90.6%
[41]
  residual activity: 81.2%
[42]
  residual activity: 88.8%
[43]
  residual activity: 100%
[44]
  residual activity: 95.6%
[45]
  residual activity: 100%
